# Assay results from paper PMC6201305 (Journal of medicinal chemistry, 2010).
# Several values for one entry are separate records, joined by “and”; a condition that tells them apart may be missing. Equal entries are not always repeated.
# Assays:
# wild type GPR17 [1] = target: T1, wild type GPR17 (Homo sapiens, UniProt Q13304); assay: FAC-MS screening on GPR17-IAM-I column; type: binding; details: for t/tc × 100, percentage of breakthrough time with respect to cangrelor / t (min), breakthrough time of the ligand with the immobilized GPR17 / binding class from FAC-MS breakthrough: column GPR17-IAM-I; for t (min), breakthrough time of the ligand with the immobilized GPR17: each 1 µM, single ranking experiment; for binding class from FAC-MS breakthrough: relative to cangrelor, MRS 2179 and UDP
# T1 sequence (Q13304 29-367): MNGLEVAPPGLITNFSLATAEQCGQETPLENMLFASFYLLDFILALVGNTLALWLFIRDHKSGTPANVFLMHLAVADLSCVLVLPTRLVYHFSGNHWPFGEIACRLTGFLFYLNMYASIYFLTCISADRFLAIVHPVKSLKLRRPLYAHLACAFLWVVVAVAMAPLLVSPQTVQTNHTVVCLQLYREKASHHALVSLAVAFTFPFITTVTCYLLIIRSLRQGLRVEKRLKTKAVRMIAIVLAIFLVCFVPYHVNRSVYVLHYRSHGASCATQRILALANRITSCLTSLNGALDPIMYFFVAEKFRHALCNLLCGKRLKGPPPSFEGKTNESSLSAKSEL
# [2] = target: mutated GPR17 receptor (Arg255Ile) (Homo sapiens, UniProt Q13304, R283I); assay: FAC-MS screening on mutated GPR17-IAM column; type: binding; details: Library A, mutated GPR17-IAM column (19.5 million cells); for breakthrough time Mutated GPR17-IAM (Table 5): 1 µM each
# Chain of mutated GPR17 receptor (Arg255Ile) (Q13304 29-367 R283I): as the sequence (Q13304 29-367) above, with R255I counted along it
# wild type GPR17 [3] = target: T1, wild type GPR17; details: cited from earlier work
# wild type GPR17 [4] = target: T1, wild type GPR17; assay: FAC-MS screening on GPR17-IAM-II column; type: binding; details: Library A; for breakthrough time GPR17-IAM-II (Table 5): 1 µM each; for breakthrough time GPR17-IAM-II (Table 5) / t (min), breakthrough time: column GPR17-IAM-II (19.5 million cells); for t/tC × 100: column GPR17-IAM-II; for t (min), breakthrough time: single ranking experiment
# [5] = target: R255I mutated GPR17 receptor (Homo sapiens, UniProt Q13304, R283I); assay: [35S]GTPγS binding functional assay, 1321N1 cells expressing mutated GPR17; type: biochemical; details: [35S]GTPγS EC50/IC50, P < 0.05 for antagonists
# Chain of R255I mutated GPR17 receptor (Q13304 29-367 R283I): as the sequence (Q13304 29-367) above, with R255I counted along it
# P2Y receptors = details: as listed in Table 1; cited from earlier work
# wild type GPR17 [6] = target: T1, wild type GPR17; assay: [35S]GTPγS binding functional assay, 1321N1 cells expressing wild-type GPR17; type: biochemical
Structure (SMILES),"t/tc × 100, percentage of breakthrough time with respect to cangrelor (wild type GPR17 [1]; Library A mixture)","t/tc × 100, percentage of breakthrough time with respect to cangrelor (wild type GPR17 [1]; Library A mixture, listed as MRS 2179) [%]","t/tc × 100, percentage of breakthrough time with respect to cangrelor (wild type GPR17 [1]; Library B mixture)","t (min), breakthrough time of the ligand with the immobilized GPR17 (wild type GPR17 [1]; Library B mixture) [min]",breakthrough time Mutated GPR17-IAM (Table 5) [2],"t (min), breakthrough time [2] [min]",breakthrough time GPR17-IAM-II (Table 5) (wild type GPR17 [4]),t/tC × 100 (wild type GPR17 [4]) [%],"t (min), breakthrough time (wild type GPR17 [4])",change in affinity toward mutated vs wild type receptor [5],binding class from FAC-MS breakthrough (wild type GPR17 [1]),Kd value hypothesized from the chromatographic data (wild type GPR17 [1]; elutes after cangrelor),pharmacological profile (agonist/antagonist) in [35S]GTPγS binding (wild type GPR17 [6]; wild-type GPR17),increase in [35S]GTPγS binding by compound alone (wild type GPR17 [6]; wild-type GPR17),"increase of activity on replacement of 3-nitrogen by CH (8 versus 7) (wild type GPR17 [6]; wild-type GPR17, EC50 comparison) [fold]",profile at GPR17 (wild type GPR17 [3]),pharmacology (P2Y receptors)
N.N.N.N.Nc1nc(C#Cc2ccccc2)nc2c1ncn2[C@@H]1O[C@H](COP(=O)(O)OP(=O)(O)OP(=O)(O)O)[C@@H](O)[C@H]1O [Compound 4],120.37%,,,,16.07,16.07,13.07,123.30,13.07 min,a trend toward an increased affinity,high binding candidates,subnanomolar,agonist profile,,,,"P2Y1,12antogonist"
N.N.Nc1nc(Cl)nc2c1ncn2[C@H]1C[C@H](OP(=O)(O)O)[C@@H](COP(=O)(O)O)O1 [Compound 12],25.99%,,,,3.54,,3.55,33.49,3.55 min,,,,antagonist profile,did not induce any significant increase,,,
N.N.N.O=c1[nH]c(=O)n([C@@H]2O[C@H](COP(=O)(O)OP(=O)(O)O)[C@@H](O)[C@H]2O)cc1I [Compound 13],16.54%,,,,2.51,2.51,2.79,26.32,2.79 min,a trend toward a reduced affinity,weak binders,,agonist profile,,,,
"CSCCNc1nc(SCCC(F)(F)F)nc2c1ncn2[C@@H]1O[C@H](COP(=O)([O-])OP(=O)([O-])C(Cl)(Cl)P(=O)([O-])[O-])[C@@H](O)[C@H]1O.[Na+].[Na+].[Na+].[Na+] [Cangrelor, cangrelor, reference compound]",100.00%,,100.00%,12.20,13.16,13.16,10.60,100.00,10.60 min and 10.6 min,significant increase in affinity,,,,,,antagonists,
N.N.N.N.O=P(O)(O)OP(=O)(O)OP(=O)(O)OC[C@H]1O[C@@H](n2cnc3c(NC4CCCC4)ncnc32)[C@H](O)[C@@H]1O [Compound 6],49.90%,,,,7.08,,5.67,53.49,5.67 min,,,,agonist profile,,,,
"CCCCC#Cc1cn([C@@H]2O[C@H](COP(=O)(O)OP(=O)(O)O)[C@@H](O)[C@H]2O)c(=O)[nH]c1=O [Compound 14, 5-Hexynyluridine Diphosphate]",19.67%,,,,2.90,,2.97,28.02,2.97 min,,weak binders,,,,,,

# Further lines, with some results ahead:
"t/tc × 100, percentage of breakthrough time with respect to cangrelor (wild type GPR17 [1]; Library A mixture)","t/tc × 100, percentage of breakthrough time with respect to cangrelor (wild type GPR17 [1]; Library A mixture, listed as MRS 2179) [%]","t/tc × 100, percentage of breakthrough time with respect to cangrelor (wild type GPR17 [1]; Library B mixture)","t (min), breakthrough time of the ligand with the immobilized GPR17 (wild type GPR17 [1]; Library B mixture) [min]",breakthrough time Mutated GPR17-IAM (Table 5) [2],"t (min), breakthrough time [2] [min]",breakthrough time GPR17-IAM-II (Table 5) (wild type GPR17 [4]),t/tC × 100 (wild type GPR17 [4]) [%],"t (min), breakthrough time (wild type GPR17 [4])",change in affinity toward mutated vs wild type receptor [5],binding class from FAC-MS breakthrough (wild type GPR17 [1]),Kd value hypothesized from the chromatographic data (wild type GPR17 [1]; elutes after cangrelor),pharmacological profile (agonist/antagonist) in [35S]GTPγS binding (wild type GPR17 [6]; wild-type GPR17),increase in [35S]GTPγS binding by compound alone (wild type GPR17 [6]; wild-type GPR17),"increase of activity on replacement of 3-nitrogen by CH (8 versus 7) (wild type GPR17 [6]; wild-type GPR17, EC50 comparison) [fold]",Structure (SMILES),profile at GPR17 (wild type GPR17 [3]),pharmacology (P2Y receptors)
28.92%,29,28% and 27.87%,3.40,3.47,3.47,3.62,34.15,3.62 min,significant increase in affinity,,,,,,"CNc1ncnc2c1ncn2[C@H]1C[C@H](OP(=O)(O)O)[C@@H](COP(=O)(O)O)O1.N.N [MRS2179, MRS 2179]",antagonists,P2Y1 competitive Antagonist
,,,,4.08,,3.69,34.81,3.69 min,,,,,,,CNc1ncnc2c1ncn2[C@@H]1O[C@H](COP(=O)(O)OP(=O)(O)OP(=O)(O)O)[C@@H](O)[C@H]1O.N.N.N.N [Compound 5],,
37.56%,,,,5.27,,4.50,42.45,4.50 min and 4.5 min,,,,agonist profile,,,"CNc1nc(Cl)nc2c1ncn2[C@@H]1O[C@H](COP(=O)(O)OP(=O)(O)OP(=O)(O)O)[C@@H](O)[C@H]1O.N.N.N.N [Compound 7, 2.-choro-N^6 - methyladenosine Triphospate]",,
45.05%,,,,5.79,,4.77,45.00,4.77 min,,,,agonist profile,,7,"CNc1nc(Cl)cc2c1ncn2[C@@H]1O[C@H](COP(=O)(O)OP(=O)(O)OP(=O)(O)O)[C@@H](O)[C@H]1O.N.N.N.N [Compound 8, 2.-choro-3-deaza-N^6-- methyladenosine Triphospate]",,
13% and 13.03%,,12% and 12.30%,1.50,2.15,2.15,2.69,25.38,2.69 min,a trend toward a reduced affinity,,,,,,"O=c1ccn([C@@H]2O[C@H](COP(=O)([O-])OP(=O)([O-])[O-])[C@@H](O)[C@H]2O)c(=O)[nH]1.[Na+].[Na+].[Na+] [UDP, uridine diphosphate]",agonist,P2Y agonist
